Here are results for one compound from patent US20250152659A1, “METHOD FOR PREVENTING OR TREATING PARKINSON'S DISEASE” (Suzhou Mingren Pharmaceutical Biotechnology Co., Ltd., priority 2022, published 2025).

Where a SMILES comes first, the peptide text is derived from it. [ ]: non-standard residue; d: D form. pS = N[C@@H](COP(=O)(O)O)C(=O)O

Data set [1] has as its system SH-SYSY cells. The data set is described as follows: CCK8 cell viability assay, rotenone toxicity. It counts as cell-based, human. The conditions noted are these: Rot 2.5 μM and JP1 25, 50, 100 μM, 24 and 48 hours, dose-dependent. As to the method:
(§1) The example is to evaluate the protective effects of JP1 on the viability of mouse hippocampal neuronal cells HT-22 and human […] cells (SH-SYSY) induced by Rotenone (Rot) (CCK8 assay).
(§2) 1) Cell culture and treatment: The human neuroblastoma cell line SH-SYSY and the mouse hippocampal neuron cell line HT-22 were cultured in DMEM medium containing 100 µg/mL streptomycin, 100 U/mL penicillin, and 10% fetal bovine serum at 37° C. in a 5% CO2 environment. The cells were treated with Rotenone (2.5 μM) and JWA targeting peptide JP1 (0, 25, 50, 100 μM) for 24 and 48 hours, respectively. Model cells were tested for cell viability using CCK8 assay, expression levels of inflammasome 3 (NLRP3) and apoptosis related proteins (PARP1, Cleaved caspase1, 3, 9) using Western Blot, and mitochondrial membrane potential (JC1) and intracellular reactive oxygen species (ROS) levels using immunofluorescence staining.
(§3) Cells were inoculated in a 96-well plate at a density of 8000 cells/well for adherence for 24 hours. The culture medium was discarded and the cells were incubated for 24 and 48 hours with different concentrations of the drug. […] The absorbance value was read by an enzyme immunoassay detector at 450 nm. The cell viability (3 parallel samples in each group, and repeat 3 times) was calculated.

Data set [2] relates to HT-22 cells. Kind of data set: CCK8 cell viability assay, rotenone toxicity. The format is cell-based, mouse. The conditions noted are these: Rot 2.5 μM and JP1 25, 50, 100 μM, 24 and 48 hours, dose-dependent. As to the method: as §1, §2, §3
The conditions of data set [3]: background statement; cited from earlier work.

As for `N=C(N)NCCC[C@H](NC(=O)[C@H](Cc1ccccc1)NC(=O)[C@H](CCCNC(=N)N)NC(=O)[C@H](CC(=O)O)NC(=O)[C@H](COP(=O)(O)O)NC(=O)CNC(=O)[C@@H]1CCCN1C(=O)[C@@H](N)Cc1ccccc1)C(=O)NCC(=O)N[C@@H](CC(=O)O)C(=O)O` [JP1] (H-FPG[pS]DRFRGD-OH), the “cell viability, protection against cytotoxicity of Rot” value in data set [1] and in data set [2] was “significant protective effect” in each case. For the same compound, in data set [3], the “crossing the blood-brain barrier” value is reported as “can cross the blood-brain barrier”.
